Results as given in PubChem BioAssay (NCI).
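Tested at 5 concentrations; 48 h exposure; 96-well plates; endpoints linearly interpolated, else capped at highest concentration. The concentration for 50% growth inhibition is given as GI50. TGI is the concentration that stops growth completely.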

What was measured:
Assay in all cases: NCI-60 cell line screen, 48 h
OVCAR-5 ovarian = test system: OVCAR-5 ovarian
OVCAR-3 ovarian = test system: OVCAR-3 ovarian
SNB-75 CNS = test system: SNB-75 CNS
SR leukemia = test system: SR leukemia
OVCAR-8 ovarian = test system: OVCAR-8 ovarian
HCC-2998 colon = test system: HCC-2998 colon
UO-31 renal = test system: UO-31 renal
COLO 205 colon = test system: COLO 205 colon
UACC-257 melanoma = test system: UACC-257 melanoma
ACHN renal = test system: ACHN renal

SMILES: COc1ccc(C)cc1Nc1nnc(-c2ccccc2N)s1
- TGI (OVCAR-5 ovarian): > 100 µM
- TGI (OVCAR-3 ovarian): > 100 µM
- TGI (SNB-75 CNS): > 100 µM
- TGI (SR leukemia): 46.7 µM
- TGI (OVCAR-8 ovarian): > 100 µM
- TGI (HCC-2998 colon): > 100 µM
- TGI (UO-31 renal): > 100 µM
- TGI (COLO 205 colon): > 100 µM
- TGI (UACC-257 melanoma): > 100 µM
- TGI (ACHN renal): > 100 µM

SMILES: COC1OC2COC1(OC)C1OC(C)(C)OC21 (stereo unspecified)
- TGI (OVCAR-5 ovarian): > 100 µM
- TGI (OVCAR-3 ovarian): > 100 µM
- TGI (SNB-75 CNS): > 100 µM
- TGI (SR leukemia): > 100 µM
- TGI (OVCAR-8 ovarian): > 100 µM
- TGI (HCC-2998 colon): > 100 µM
- TGI (UO-31 renal): > 100 µM
- TGI (COLO 205 colon): > 100 µM
- TGI (UACC-257 melanoma): > 100 µM
- TGI (ACHN renal): > 100 µM

SMILES: CCNC(=O)c1cc(/C=C/c2ccc([N+](=O)[O-])o2)nc2ccccc12
- TGI (OVCAR-5 ovarian): > 100 µM
- TGI (OVCAR-3 ovarian): > 100 µM
- TGI (SNB-75 CNS): 63.8 µM
- TGI (SR leukemia): > 100 µM
- TGI (OVCAR-8 ovarian): > 100 µM
- TGI (HCC-2998 colon): > 100 µM
- TGI (UO-31 renal): > 100 µM
- TGI (COLO 205 colon): > 84.2 µM
- TGI (UACC-257 melanoma): 28.2 µM
- TGI (ACHN renal): > 100 µM

SMILES: O=C1/C(=N\S(=O)(=O)c2ccccc2)C([n+]2ccc(Cc3ccccc3)cc2)=C([O-])c2ccccc21
- TGI (OVCAR-5 ovarian): 3.49 µM
- TGI (OVCAR-3 ovarian): 2.2 µM
- TGI (SNB-75 CNS): 2.64 µM
- TGI (SR leukemia): > 100 µM
- TGI (OVCAR-8 ovarian): 8.06 µM
- TGI (HCC-2998 colon): 2.51 µM
- TGI (UO-31 renal): 4.62 µM
- TGI (COLO 205 colon): 1.14 µM
- TGI (UACC-257 melanoma): 2.54 µM
- TGI (ACHN renal): 4.33 µM

SMILES: Cc1c2c(n(CCc3ccc(Cl)cc3)c1C)NC(c1ccccc1)C(C#N)S2(=O)=O (stereo unspecified)
- TGI (OVCAR-5 ovarian): > 100 µM
- TGI (OVCAR-3 ovarian): > 100 µM
- TGI (SNB-75 CNS): > 100 µM
- TGI (SR leukemia): 38.2 µM
- TGI (OVCAR-8 ovarian): > 100 µM
- TGI (HCC-2998 colon): > 100 µM
- TGI (UO-31 renal): > 100 µM
- TGI (COLO 205 colon): > 71.4 µM
- TGI (UACC-257 melanoma): > 100 µM
- TGI (ACHN renal): > 100 µM

SMILES: CC1(C)CC(C)(C)C1=NNC(N)=O
- TGI (OVCAR-5 ovarian): > 100 µM
- TGI (OVCAR-3 ovarian): > 100 µM
- TGI (SNB-75 CNS): > 100 µM
- TGI (SR leukemia): > 100 µM
- TGI (OVCAR-8 ovarian): > 100 µM
- TGI (HCC-2998 colon): > 100 µM
- TGI (UO-31 renal): > 100 µM
- TGI (COLO 205 colon): > 100 µM
- TGI (UACC-257 melanoma): > 100 µM
- TGI (ACHN renal): > 100 µM

SMILES: CC(=O)Nc1ccc(OC2=CCN(C)CC2)cc1
- TGI (OVCAR-5 ovarian): > 100 µM
- TGI (OVCAR-3 ovarian): > 100 µM
- TGI (SNB-75 CNS): > 100 µM
- TGI (SR leukemia): > 100 µM
- TGI (OVCAR-8 ovarian): > 100 µM
- TGI (HCC-2998 colon): > 100 µM
- TGI (UO-31 renal): > 100 µM
- TGI (COLO 205 colon): > 100 µM
- TGI (UACC-257 melanoma): > 100 µM
- TGI (ACHN renal): > 100 µM

SMILES: O=C(Nc1ccccc1)N(CCCCN(Cc1ccccc1)C(=O)Nc1ccccc1)Cc1ccccc1
- TGI (OVCAR-5 ovarian): > 100 µM
- TGI (OVCAR-3 ovarian): > 100 µM
- TGI (SNB-75 CNS): > 100 µM
- TGI (SR leukemia): > 100 µM
- TGI (OVCAR-8 ovarian): > 100 µM
- TGI (HCC-2998 colon): > 100 µM
- TGI (UO-31 renal): > 100 µM
- TGI (COLO 205 colon): > 100 µM
- TGI (UACC-257 melanoma): > 100 µM
- TGI (ACHN renal): > 100 µM

SMILES: O=c1ccn(CC2(CO)CC(Cc3ccccc3)C2)c(=O)[nH]1 (stereo unspecified)
- TGI (OVCAR-5 ovarian): > 100 µM
- TGI (OVCAR-3 ovarian): > 100 µM
- TGI (SNB-75 CNS): > 100 µM
- TGI (SR leukemia): > 100 µM
- TGI (OVCAR-8 ovarian): > 100 µM
- TGI (HCC-2998 colon): > 100 µM
- TGI (UO-31 renal): > 100 µM
- TGI (COLO 205 colon): > 100 µM
- TGI (UACC-257 melanoma): > 100 µM
- TGI (ACHN renal): > 100 µM

SMILES: O=C(OCCN=c1c2ccccc2ccc2ccccc12)c1ccc([N+](=O)[O-])cc1
- TGI (OVCAR-5 ovarian): > 100 µM
- TGI (OVCAR-3 ovarian): > 100 µM
- TGI (SNB-75 CNS): > 100 µM
- TGI (SR leukemia): > 100 µM
- TGI (OVCAR-8 ovarian): > 100 µM
- TGI (HCC-2998 colon): > 100 µM
- TGI (UO-31 renal): > 100 µM
- TGI (COLO 205 colon): > 100 µM
- TGI (UACC-257 melanoma): > 100 µM
- TGI (ACHN renal): > 100 µM

SMILES: S=C1SCN(Cc2ccco2)CN1c1ccc(Br)cc1
- TGI (OVCAR-5 ovarian): 34.5 µM
- TGI (OVCAR-3 ovarian): 21.1 µM
- TGI (SNB-75 CNS): > 100 µM
- TGI (SR leukemia): 31.4 µM
- TGI (OVCAR-8 ovarian): 93.9 µM
- TGI (HCC-2998 colon): 27.5 µM
- TGI (UO-31 renal): 44.9 µM
- TGI (COLO 205 colon): 32 µM
- TGI (UACC-257 melanoma): 42.6 µM
- TGI (ACHN renal): 64.2 µM

SMILES: CC1(O)CC(=O)c2c(cc3ccc(-c4c5c(c(O)c6c(O)cccc46)C(=O)CC(C)(O)C5)c(O)c3c2O)C1 (stereo unspecified)
- TGI (OVCAR-5 ovarian): 8.66 µM
- TGI (OVCAR-3 ovarian): 0.646 µM
- TGI (SNB-75 CNS): 0.773 µM
- TGI (SR leukemia): 7.06 µM
- TGI (OVCAR-8 ovarian): 3.76 µM
- TGI (HCC-2998 colon): 1.07 µM
- TGI (UO-31 renal): 0.726 µM
- GI50 (COLO 205 colon): 0.0361 µM
- TGI (COLO 205 colon): 0.158 µM
- TGI (UACC-257 melanoma): 1.3 µM
- TGI (ACHN renal): 11 µM

SMILES: Cc1ccc2c(c1C)C(=O)/C(=C/c1ccccc1C(=O)O)C2
- TGI (OVCAR-5 ovarian): > 100 µM
- TGI (OVCAR-3 ovarian): > 100 µM
- TGI (SNB-75 CNS): > 100 µM
- TGI (SR leukemia): > 100 µM
- TGI (OVCAR-8 ovarian): > 100 µM
- TGI (HCC-2998 colon): > 100 µM
- TGI (UO-31 renal): > 100 µM
- TGI (COLO 205 colon): > 100 µM
- TGI (UACC-257 melanoma): > 100 µM
- TGI (ACHN renal): > 100 µM

SMILES: C=C(CO[Si](C)(C)C(C)(C)C)C(C)=O
- TGI (OVCAR-5 ovarian): 86.2 µM
- TGI (OVCAR-3 ovarian): 38.1 µM
- TGI (SNB-75 CNS): 62.3 µM
- TGI (SR leukemia): > 31.6 µM
- TGI (OVCAR-8 ovarian): 37.5 µM
- TGI (HCC-2998 colon): 57.3 µM
- TGI (UO-31 renal): > 66 µM
- TGI (COLO 205 colon): > 71 µM
- TGI (UACC-257 melanoma): 34.3 µM
- TGI (ACHN renal): > 71.4 µM

SMILES: CC(C)(Oc1ccc(Cl)cc1)C(=O)N(C(=O)N1CCC(c2ccccc2)CC1)c1ccccc1
- TGI (OVCAR-5 ovarian): > 100 µM
- TGI (OVCAR-3 ovarian): > 100 µM
- TGI (SNB-75 CNS): > 83.2 µM
- TGI (SR leukemia): > 100 µM
- TGI (OVCAR-8 ovarian): > 100 µM
- TGI (HCC-2998 colon): > 100 µM
- TGI (UO-31 renal): > 100 µM
- TGI (COLO 205 colon): > 62.5 µM
- TGI (UACC-257 melanoma): > 100 µM
- TGI (ACHN renal): > 100 µM

SMILES: COc1cc(/C=C2/C[C@H]3[C@@H]4CC=C5C[C@@H](OC(C)=O)CC[C@]5(C)[C@H]4CC[C@]3(C)NC2=O)cc(OC)c1OC
- TGI (OVCAR-5 ovarian): 92.2 µM
- TGI (OVCAR-3 ovarian): > 100 µM
- TGI (SNB-75 CNS): 47.3 µM
- TGI (SR leukemia): > 100 µM
- TGI (OVCAR-8 ovarian): > 100 µM
- TGI (HCC-2998 colon): > 100 µM
- TGI (UO-31 renal): 50.2 µM
- TGI (COLO 205 colon): > 100 µM
- TGI (UACC-257 melanoma): 97.1 µM
- TGI (ACHN renal): 44.6 µM

SMILES: COc1ccc(-c2cc(-c3ccc(Nc4ccnc5cc(Cl)ccc45)cc3)[nH]c(=O)c2C#N)c2ccccc12
- TGI (OVCAR-5 ovarian): > 100 µM
- TGI (OVCAR-3 ovarian): 5.34 µM
- TGI (SNB-75 CNS): 95.4 µM
- TGI (SR leukemia): 2.6 µM
- TGI (OVCAR-8 ovarian): 5.41 µM
- TGI (HCC-2998 colon): > 92.9 µM
- TGI (UO-31 renal): 15.2 µM
- TGI (COLO 205 colon): 6.89 µM
- TGI (UACC-257 melanoma): 99.4 µM
- TGI (ACHN renal): > 100 µM

SMILES: CCCCCCCCCCCCCCCCCCNc1ccn(C2OC(COP(=O)(O)OCC3OC(n4cc(F)c(NCCCCCCCCCCCCCCCCCC)nc4=O)CC3O)C(O)C2O)c(=O)n1 (stereo unspecified)
- TGI (OVCAR-5 ovarian): > 100 µM
- TGI (OVCAR-3 ovarian): > 100 µM
- TGI (SNB-75 CNS): > 100 µM
- TGI (SR leukemia): > 100 µM
- TGI (OVCAR-8 ovarian): > 100 µM
- TGI (HCC-2998 colon): > 100 µM
- TGI (UO-31 renal): > 100 µM
- TGI (COLO 205 colon): > 100 µM
- TGI (UACC-257 melanoma): > 100 µM
- TGI (ACHN renal): > 100 µM
